Laboratory results reported in patent US20260049088A1, “TRICYCLIC HETEROCYCLIC DERIVATIVES, COMPOSITIONS AND USES THEREOF” (Danatlas Pharmaceuticals Co., Ltd., priority 2023, published 2026).

The compounds below were run against T1, hPARG (Homo sapiens, UniProt Q86W56) (assay: PARG enzymatic activity assay (HTRF)). Conditions: C-terminal His6-tag hPARG 65 pM, biotinylated-NAD ribosylated PARP1 substrate 8 nM.
T1 construct: made in house; host or cells: E. coli
Format: biochemical
Procedure: HTRF assay was used to measure the ability of compounds to inhibit the activity of […] in vitro. C-terminal His6—tag PARG expressed in E. coli was purified and stored at −80° C. in aliquots. Assay measurements were performed with 1×buffer comprising 50 mM Tris pH 7.4, 0.1 mg/mL BSA, 3 mM EDTA, 0.4 mM EGTA, 1 mM DTT, 50 mM KCl and 0.01% Tween 20. Compounds dissolved in DMSO were plated into a 384-well assay plate (PerkinElmer, Catalog #: 6008280) in duplicate using a dispenser (Labcyte, Echo 665), and tested on a 10-point 4-fold serial dilution. Add 5 μL Enzyme mix [hPARG (C-terminal His6—tag, 4.2 μM), 65 pM final] to the test wells. The plates were covered and left to incubate for 60 minutes at RT before the addition of 5 μL substrate mix [biotinylated-NAD ribosylated PARP1 (6.1 μM), 8 nM final] to initiate reaction. After incubating 10 minutes at RT, add 2.5 μL Streptavidin-Eu cryptate (Cisbio, Catalog #: 610SAKLA) and 2.5 μL Mab anti 6HIS-XL665 (Cisbio, Catalog #: 61HISXLA) to the plate, and incubate for 60 minutes at RT. Read on a multimode plate reader (PerkinElmer, Envision 2015) in time-resolved fluorescence (TRF) mode, with excitation at 337 nm and emission at both 620 nm and 665 nm. Average HTRF signal of high control (Wells with 1% DMSO) was calculated and as Vehicle Control (VC). Average HTRF signal of low control (no Enzyme) was calculated and as Positive control (PC).
IC50 values were determined by fitting the data to the standard 4 parameters with Hill Slope using GraphPad Prism software.

T1 sequence (Q86W56 whole entry): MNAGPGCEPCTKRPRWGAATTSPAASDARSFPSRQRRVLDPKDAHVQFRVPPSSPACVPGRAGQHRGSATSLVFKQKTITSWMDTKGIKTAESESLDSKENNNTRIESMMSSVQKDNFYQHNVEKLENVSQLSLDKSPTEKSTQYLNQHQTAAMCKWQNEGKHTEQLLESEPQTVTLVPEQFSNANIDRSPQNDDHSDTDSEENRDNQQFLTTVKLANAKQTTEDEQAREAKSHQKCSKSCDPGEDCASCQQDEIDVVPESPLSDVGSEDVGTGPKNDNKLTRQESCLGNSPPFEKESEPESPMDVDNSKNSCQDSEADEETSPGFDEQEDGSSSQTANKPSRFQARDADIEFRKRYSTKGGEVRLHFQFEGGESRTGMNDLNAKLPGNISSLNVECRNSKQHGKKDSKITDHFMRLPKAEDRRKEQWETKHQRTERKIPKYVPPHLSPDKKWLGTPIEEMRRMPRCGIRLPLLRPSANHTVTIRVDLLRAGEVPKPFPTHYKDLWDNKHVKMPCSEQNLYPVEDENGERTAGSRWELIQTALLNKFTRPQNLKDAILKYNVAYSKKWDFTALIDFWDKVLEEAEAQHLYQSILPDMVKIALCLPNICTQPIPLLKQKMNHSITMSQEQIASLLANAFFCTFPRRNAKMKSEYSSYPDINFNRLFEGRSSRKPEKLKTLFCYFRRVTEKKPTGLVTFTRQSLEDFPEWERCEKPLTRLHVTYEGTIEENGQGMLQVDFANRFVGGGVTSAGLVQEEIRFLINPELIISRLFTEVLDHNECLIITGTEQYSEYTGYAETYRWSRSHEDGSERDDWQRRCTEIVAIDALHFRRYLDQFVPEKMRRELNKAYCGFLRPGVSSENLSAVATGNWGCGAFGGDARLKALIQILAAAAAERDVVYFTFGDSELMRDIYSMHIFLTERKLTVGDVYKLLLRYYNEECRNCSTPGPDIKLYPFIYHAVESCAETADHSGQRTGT

| Structure (SMILES) | IC50 |
| --- | --- |
| CCSc1ncnc2c1c1ccc(S(=O)(=O)NC3(C#N)CC3)cc1n2-c1nnc(C(F)F)s1 [Example 26, N-(1-Cyanocyclopropyl)-9-(5-(difluoromethyl)-1,3,4-thiadiazol-2-yl)-4-(ethylthio)-9H-pyrimido[4,5-b]indole-7-sulfonamide] | > 1000 nM |
| N#CC1(NS(=O)(=O)c2ccc3c4c(SCCO)ncnc4n(-c4nnc(C(F)F)s4)c3c2)CC1 [Example 27, N-(1-Cyanocyclopropyl)-9-(5-(difluoromethyl)-1,3,4-thiadiazol-2-yl)-4-((2-hydroxyethyl)thio)-9H-pyrimido[4,5-b]indole-7-sulfonamide] | ≤ 100 nM |
| CCN(CC)C1CCN(c2ncnc3c2c2ccc(S(=O)(=O)NC4(C#N)CC4)cc2n3-c2nnc(C(F)F)s2)CC1 [Example 28, N-(1-Cyanocyclopropyl)-4-(4-(diethylamino)piperidin-1-yl)-9-(5-(difluoromethyl)-1,3,4-thiadiazol-2-yl)-9H-pyrimido[4,5-b]indole-7-sulfonamide] | ≤ 100 nM |
| CN1CC2CN(c3ncnc4c3c3ccc(S(=O)(=O)NC5(C#N)CC5)cc3n4-c3nnc(C(F)F)s3)CC2C1 (stereo not shown) [Example 29, N-(1-Cyanocyclopropyl)-9-(5-(difluoromethyl)-1,3,4-thiadiazol-2-yl)-4-(5-methylhexahydropyrrolo[3,4-c]pyrrol-2(1H)-yl)-9H-pyrimido[4,5-b]indole-7-sulfonamide] | ≤ 100 nM |
| CN1C[C@H]2C[C@@H]1CN2c1ncnc2c1c1ccc(S(=O)(=O)NC3(C#N)CC3)cc1n2-c1nnc(C(F)F)s1 [Example 30, N-(1-Cyanocyclopropyl)-9-(5-(difluoromethyl)-1,3,4-thiadiazol-2-yl)-4-((1R,4R)-5-methyl-2,5-diazabicyclo[2.2.1]heptan-2-yl)-9H-pyrimido[4,5-b]indole-7-sulfonamide] | ≤ 100 nM |
| CN1C[C@@H]2C[C@H]1CN2c1ncnc2c1c1ccc(S(=O)(=O)NC3(C#N)CC3)cc1n2-c1nnc(C(F)F)s1 [Example 31, N-(1-Cyanocyclopropyl)-9-(5-(difluoromethyl)-1,3,4-thiadiazol-2-yl)-4-((1S,4S)-5-methyl-2,5-diazabicyclo[2.2.1]heptan-2-yl)-9H-pyrimido[4,5-b]indole-7-sulfonamide] | ≤ 100 nM |
| CCN(CC)[C@H]1CCN(c2ncnc3c2c2ccc(S(=O)(=O)NC4(C#N)CC4)cc2n3-c2nnc(C(F)F)s2)C[C@@H]1F [Example 32, N-(1-Cyanocyclopropyl)-4-((3S,4S)-4-(diethylamino)-3-fluoropiperidin-1-yl)-9-(5-(difluoromethyl)-1,3,4-thiadiazol-2-yl)-9H-pyrimido[4,5-b]indole-7-sulfonamide] | ≤ 100 nM |
| CCN(CC)[C@@H]1CCN(c2ncnc3c2c2ccc(S(=O)(=O)NC4(C#N)CC4)cc2n3-c2nnc(C(F)F)s2)C[C@@H]1F [Example 33, N-(1-Cyanocyclopropyl)-4-((3S,4R)-4-(diethylamino)-3-fluoropiperidin-1-yl)-9-(5-(difluoromethyl)-1,3,4-thiadiazol-2-yl)-9H-pyrimido[4,5-b]indole-7-sulfonamide] | ≤ 100 nM |
| CCN(CC)[C@H]1CCN(c2ncnc3c2c2ccc(S(=O)(=O)NC4(C#N)CC4)cc2n3-c2nnc(C(F)F)s2)C[C@H]1F [Example 34, N-(1-Cyanocyclopropyl)-4-((3R,4S)-4-(diethylamino)-3-fluoropiperidin-1-yl)-9-(5-(difluoromethyl)-1,3,4-thiadiazol-2-yl)-9H-pyrimido[4,5-b]indole-7-sulfonamide] | ≤ 100 nM |
| CCN(CC)[C@@H]1CCN(c2ncnc3c2c2ccc(S(=O)(=O)NC4(C#N)CC4)cc2n3-c2nnc(C(F)F)s2)C[C@H]1F [Example 35, N-(1-Cyanocyclopropyl)-4-((3R,4R)-4-(diethylamino)-3-fluoropiperidin-1-yl)-9-(5-(difluoromethyl)-1,3,4-thiadiazol-2-yl)-9H-pyrimido[4,5-b]indole-7-sulfonamide] | ≤ 100 nM |
| N#CC1(NS(=O)(=O)c2ccc3c4c(N5CCC(N6CCC(F)(F)CC6)[C@@H](F)C5)ncnc4n(-c4nnc(C(F)F)s4)c3c2)CC1 (stereo partly drawn) [Example 36, N-(1-Cyanocyclopropyl)-9-(5-(difluoromethyl)-1,3,4-thiadiazol-2-yl)-4-((3′S)-3′,4,4-trifluoro-[1,4′-bipiperidin]-1′-yl)-9H-pyrimido[4,5-b]indole-7-sulfonamide] | ≤ 100 nM |
| CN(C)CC1CN(c2ncnc3c2c2ccc(S(=O)(=O)NC4(C#N)CC4)cc2n3-c2nnc(C(F)F)s2)CCO1 (stereo not shown) [Example 37, N-(1-Cyanocyclopropyl)-9-(5-(difluoromethyl)-1,3,4-thiadiazol-2-yl)-4-(2-((dimethylamino)methyl)morpholino)-9H-pyrimido[4,5-b]indole-7-sulfonamide] | ≤ 100 nM |
| CCN1CCC2CN(c3ncnc4c3c3ccc(S(=O)(=O)NC5(C#N)CC5)cc3n4-c3nnc(C(F)F)s3)CCC21 (stereo not shown) [Example 38, N-(1-Cyanocyclopropyl)-9-(5-(difluoromethyl)-1,3,4-thiadiazol-2-yl)-4-(1-ethyloctahydro-5H-pyrrolo[3,2-c]pyridin-5-yl)-9H-pyrimido[4,5-b]indole-7-sulfonamide] | ≤ 100 nM |
| CCN(CC)C1C[C@H]2C[C@@H]1CN2c1ncnc2c1c1ccc(S(=O)(=O)NC3(C#N)CC3)cc1n2-c1nnc(C(F)F)s1 (stereo partly drawn) [Example 39, N-(1-Cyanocyclopropyl)-4-((1R,4R)-5-(diethylamino)-2-azabicyclo[2.2.1]heptan-2-yl)-9-(5-(difluoromethyl)-1,3,4-thiadiazol-2-yl)-9H-pyrimido[4,5-b]indole-7-sulfonamide] | ≤ 100 nM |
| N#CC1(NS(=O)(=O)c2ccc3c4c(N5C[C@H]6C[C@@H]5CC6(F)F)ncnc4n(-c4nnc(C(F)F)s4)c3c2)CC1 [Example 40, N-(1-Cyanocyclopropyl)-4-((1R,4R)-5,5-difluoro-2-azabicyclo [2.2.1]heptan-2-yl)-9-(5-(difluoromethyl)-1,3,4-thiadiazol-2-yl)-9H-pyrimido[4,5-b]indole-7-sulfonamide] | 100 to 1000 nM |
| C[C@@H]1CN(c2ncnc3c2c2ccc(S(=O)(=O)NC4(C#N)CC4)cc2n3-c2nnc(C(F)F)s2)C[C@H](C)N1C [Example 41, N-(1-Cyanocyclopropyl)-9-(5-(difluoromethyl)-1,3,4-thiadiazol-2-yl)-4-((3R,5S)-3,4,5-trimethylpiperazin-1-yl)-9H-pyrimido[4,5-b]indole-7-sulfonamide] | ≤ 100 nM |
| N#CC1(NS(=O)(=O)c2ccc3c4c(N5CCO[C@@H](CO)C5)ncnc4n(-c4nnc(C(F)F)s4)c3c2)CC1 [Example 42, (R)-N-(1-Cyanocyclopropyl)-9-(5-(difluoromethyl)-1,3,4-thiadiazol-2-yl)-4-(2-(hydroxymethyl)morpholino)-9H-pyrimido[4,5-b]indole-7-sulfonamide] | ≤ 100 nM |
| CN1CCN(c2ncnc3c2c2ccc(S(=O)(=O)NC4(C#N)CC4)cc2n3-c2nnc(C(F)F)s2)C[C@@H]1CO [Example 43, (R)-N-(1-Cyanocyclopropyl)-9-(5-(difluoromethyl)-1,3,4-thiadiazol-2-yl)-4-(3-(hydroxymethyl)-4-methylpiperazin-1-yl)-9H-pyrimido[4,5-b]indole-7-sulfonamide] | ≤ 100 nM |
| N#CC1(NS(=O)(=O)c2ccc3c4c(N5CCn6ccnc6C5)ncnc4n(-c4nnc(C(F)F)s4)c3c2)CC1 [Example 44, N-(1-Cyanocyclopropyl)-9-(5-(difluoromethyl)-1,3,4-thiadiazol-2-yl)-4-(5,6-dihydroimidazo[1,2-a]pyrazin-7(8H)-yl)-9H-pyrimido[4,5-b]indole-7-sulfonamide] | ≤ 100 nM |
